{
  "source": "paper PMC8591201",
  "about": "“Anti-Tumor Activity of AZD4547 Against NTRK1 Fusion Positive Cancer Cells Through Inhibition of NTRKs” (Frontiers in Oncology, 2021)",
  "assay_in_all_cases": "cells",
  "set-up_in_all_cases": "Anti-proliferation, 10-point dose response, CellTiter-Glo luminescence (MTT stated for KM12(Luc)), GI50 fitted in Prism",
  "key": {"[1]": {"test_system": "MDA-MB-231", "conditions": "Homo sapiens, MDA-MB-231, 72 h, read-out: GI50 (µM) a", "protocol": "(§1) To obtain the GI50 value of a substance, cell viability was measured using MTT (G4000, Promega, USA) for KM12(Luc) cell and Cell titer glo (G7572, Promega, USA) for other cell lines. For adherent cells, cells were seeded at 5,000 cells/well in a 96-well plate and treated with a substance one day after cell seeding. For suspension cells, 10,000 cells/well were seeded and the substance was treated after 4 h stabilization of cells. The substance was treated at 10 points of 1:3 serial dilution (0–100 µmol/L) for 72 h. For MTT assay, 15 µL dye solution was added to each well and incubated 4 h at 37°C. 100 µL of solubilization solution was added and followed 1 hr incubation. Absorbance at 570 nm of each well was recorded using EnVision microplate reader (Perkin Elmer). For Cell titer glo assay, Cell titer glo reagent was treated in each well and measured the luminescence by EnVision microplate reader (Perkin Elmer). Viable cells in each well were normalized by using 0.5% DMSO-treated wells (100%). The inhibitor dose−response curve was fitted and GI50 values were calculated using Prism 7.0 software (GraphPad). All assays were performed in duplicate and the standard deviation (SD) was determined from two independent experiments. KM12(Luc) was purchased from the JCRB cell bank. KM12 (Luc) was used within 6 months after purchase and the DNA profiles were confirmed using a short tandem repeat (STR) analysis by the Korean Cell Line Bank. KM12(Luc) cells were maintained in DMEM supplemented with 10% FBS and antibiotics. Parental Ba/F3 cells were purchased from DSMZ and were grown in RPMI1640 supplemented with 10% FBS and antibiotics in the presence of IL3, Transformed Ba/F3 cell lines were grown in the same media without IL3. Cells used in this study were negative for mycoplasma contamination. AN3-CA, HEC1A, U138, 8505C, MKN28, MKN45, A172, A375, Capan-1 HeLa, HEP3B, MCF-7 and MIA-paca-2 cells were maintained in DMEM (Welgene, Korea) supplemented with 10% FBS and antibiotics (Welgene, Korea). Otherwise, all cells were maintained in RPMI (Welgene, Korea) supplemented with 10% FBS and antibiotics (Welgene, Korea). To identify AZD4547 sensitive cell lines other than FGFR-mutant driven cancer cells, GI50 values were determined for AZD4547 against 64 different cancer cell lines, including AN3-CA used as a positive control ( Figure 1A and Table S1 ). […] Also, inhibitory activity of AZD4547 against DDR1 or FLT3 allows suppression of proliferation of U-2-OS and MV4-11 ([43]). Therefore, our attention focused on the inhibitory activity of AZD4547 against KM12(Luc) cell lines which have the TPM3-NTRK1 fusion gene. To exclude the possibility that the anti-proliferation activity of AZD4547 against KM12(Luc) is a common characteristic of FGFR inhibitors, we determined if BGJ398, a representative FGFR inhibitor, is also capable of suppressing proliferation of KM12(Luc) cells ( Figure 1B )."}, "[2]": {"test_system": "SNU484", "conditions": "SNU-484, 72 h, read-out: GI50 (µM) a", "protocol": "as §1"}, "[3]": {"test_system": "C8161", "conditions": "Homo sapiens, C8161, 72 h, read-out: GI50 (µM) a", "protocol": "as §1"}, "[4]": {"test_system": "SW620", "conditions": "Homo sapiens, SW-620, 72 h, read-out: GI50 (µM) a", "protocol": "as §1"}, "[5]": {"test_system": "NCI-H1437", "conditions": "Homo sapiens, NCI-H1437, 72 h, read-out: GI50 (µM) a", "protocol": "as §1"}, "[6]": {"test_system": "MV-4-11", "conditions": "Homo sapiens, MV4-11, 72 h, read-out: GI50 (µM) a", "protocol": "as §1"}, "[7]": {"test_system": "K-562", "conditions": "Homo sapiens, K562, 72 h, read-out: GI50 (µM) a", "protocol": "as §1"}, "[8]": {"test_system": "UMUC3", "conditions": "Homo sapiens, UMUC3, 72 h, read-out: GI50 (µM) a", "protocol": "as §1"}, "[9]": {"test_system": "HEC1A", "conditions": "Homo sapiens, HEC-1-A, 72 h, read-out: GI50 (µM) a", "protocol": "as §1"}, "[10]": {"test_system": "NCI-H1975", "conditions": "Homo sapiens, NCI-H1975, 72 h, read-out: GI50 (µM) a", "protocol": "as §1"}, "[11]": {"test_system": "MOLT-4", "conditions": "Homo sapiens, MOLT-4, 72 h, read-out: GI50 (µM) a", "protocol": "as §1"}, "[12]": {"test_system": "DLD-1", "conditions": "Homo sapiens, DLD-1, 72 h, read-out: GI50 (µM) a", "protocol": "as §1"}},
  "data": [
    {"smiles": "COc1cc(CCc2cc(NC(=O)c3ccc(N4C[C@@H](C)N[C@@H](C)C4)cc3)n[nH]2)cc(OC)c1", "note": "[AZD4547]", "values": [
      {"measurement": "GI50", "setting": "[1]", "result": 20.9, "unit": "µM"},
      {"measurement": "GI50", "setting": "[2]", "result": 24.6, "unit": "µM"},
      {"measurement": "GI50", "setting": "[3]", "result": 11.1, "unit": "µM"},
      {"measurement": "GI50", "setting": "[4]", "result": 11, "unit": "µM"},
      {"measurement": "GI50", "setting": "[5]", "result": 40.3, "unit": "µM"},
      {"measurement": "GI50", "setting": "[6]", "result": 0.93, "unit": "µM"},
      {"measurement": "GI50", "setting": "[7]", "result": 17.1, "unit": "µM"},
      {"measurement": "GI50", "setting": "[8]", "result": 46.3, "unit": "µM"},
      {"measurement": "GI50", "setting": "[9]", "result": 35.6, "unit": "µM"},
      {"measurement": "GI50", "setting": "[10]", "result": 28.9, "unit": "µM"},
      {"measurement": "GI50", "setting": "[11]", "result": 6.59, "unit": "µM"},
      {"measurement": "GI50", "setting": "[12]", "result": 27.5, "unit": "µM"}
    ]}
  ]
}
